According to patent US9567319B2, “Compound having higher inhibitory activity on protein kinase G and preparation method thereof” (Jenkem Technology Co., Ltd., (Tianjin), priority 2014, dated 2017):
Values joined by “and” are separate entries in the source; they are usually repeats but may differ in a detail not shown here. Equal values may be shown once.

Key:
[1] = tested on: hyperalgesia induced by Freund's complete adjuvant (CFA) in rats; test: Weight bearing test, CFA induced hyperalgesia in rats; assay type: in vivo, SD rats; settings: for Weight Bearing Test Values (Mean ± SD), Baseline: pretreatment, n=8; for Weight Bearing Test Values (Mean ± SD), 15 min: 15 min post treatment; for Weight Bearing Test Values (Mean ± SD), 2 h: 2 h post treatment
Experimental: Compounds 46 and JK-02A were prepared according to the disclosure of US patent application No. US2008/0176920, and compound JK-02H was prepared according to Example 1. A repeat efficacy study was carried out on the same batch of animals with a single-dose treatment followed by a washing-out period. The 14 days in life studies included two stages: a single low dose treatment assessment on the 7th day and then a single high dose treatment test on the 14th day after CFA injection. On the 7th day after CFA injection, the rats were randomly assigned to respective groups using a computer generated randomization procedure based on the body weight and the baseline values of Von Frey and weight bearing test. Animals received corresponding single dose treatments (vehicle and 3 test articles) on the 7th and 14th days after CFA injection, respectively, and the effect of the test compounds were evaluated. Hyperalgesia of all the study animals was assessed following a single low dose treatment with the test articles on day 7, while a single high dose effect of the test article was evaluated on day 14. The mechanical hyperalgesia and weight bearing were measured on day 7 and day 14 after CFA injection, followed by administration of control or test articles. Von Frey filaments and weight bearing were measured on all the study animals at three time points on day 7, and four time points on day 14. An extra time point assessment was conducted on day 14, considering the strong analgesic effect of the test articles at a higher dose noticed during the test at the 3th time point. Rats distributed body weight unequally on the CFA-injected and contra lateral paws, which was measured by a weight balance changing instrument (Bio-medical, USA). The animals were tested in a box constructed to register the weight load exerted by the hind paws by means of force plates inserted in the floor. The mean weight bearing (unit in “g”) between the CFA-injected paw and the contra-lateral paw was determined in 10 seconds. The weight bearing test of all study animals was conducted at the same time intervals as the mechanical hyperalgesia test. All the results were expressed as mean±SD. One-way analysis of variance (ANOVA) followed by a multiple comparison test were applied among the groups, p<0.05 accepted as significant.

[2] = tested on: hyperalgesia induced by Freund's complete adjuvant (CFA) in rats; test: Von Frey filament test, CFA induced hyperalgesia in rats; assay type: in vivo, SD rats; settings: for Von Frey Filament Test Values (Mean ± SD), Baseline: pretreatment, n=8; for Von Frey Filament Test Values (Mean ± SD), 15 min: 15 min post treatment; for Von Frey Filament Test Values (Mean ± SD), 2 h: 2 h post treatment
Experimental: Compounds 46 and JK-02A were prepared according to the disclosure of US patent application No. US2008/0176920, and compound JK-02H was prepared according to Example 1. A repeat efficacy study was carried out on the same batch of animals with a single-dose treatment followed by a washing-out period. The 14 days in life studies included two stages: a single low dose treatment assessment on the 7th day and then a single high dose treatment test on the 14th day after CFA injection. On the 7th day after CFA injection, the rats were randomly assigned to respective groups using a computer generated randomization procedure based on the body weight and the baseline values of Von Frey and weight bearing test. Animals received corresponding single dose treatments (vehicle and 3 test articles) on the 7th and 14th days after CFA injection, respectively, and the effect of the test compounds were evaluated. Hyperalgesia of all the study animals was assessed following a single low dose treatment with the test articles on day 7, while a single high dose effect of the test article was evaluated on day 14. The mechanical hyperalgesia and weight bearing were measured on day 7 and day 14 after CFA injection, followed by administration of control or test articles. Von Frey filaments and weight bearing were measured on all the study animals at three time points on day 7, and four time points on day 14. An extra time point assessment was conducted on day 14, considering the strong analgesic effect of the test articles at a higher dose noticed during the test at the 3th time point. Mechanical hyperalgesia of the left hind paw was measured before and during the course of study in all animal groups by determining withdrawal thresholds to Von Frey filament (Bioseb, France). Increasing tensile force perpendicular to the plantar surface of the paw was applied to the filaments. The threshold for paw withdrawal was calculated by taking the average of 2-3 repeated stimuli (unit in “g”). On day 7, Von Frey Filament measurements were conducted three times, at the time points of pretreatment, 15 min and 2 hours post treatment. Following a one-week washing out period, on day 14 after CFA injection, Von Frey Filament tests were performed again four times post a single high dose administration. Rats treated with vehicle or high dose test articles were measured at the time points of pretreatment, 15 min, 2 and 5 hours post treatment. All the results were expressed as mean±SD. One-way analysis of variance (ANOVA) followed by a multiple comparison test were applied among the groups, p<0.05 accepted as significant.

[3] = day 7 after CFA, low dose groups (46 and JK-02A 10 mg/kg, JK-02H 5 mg/kg)
[4] = day 7 after CFA, single low dose i.v. (46 and JK-02A 10 mg/kg, JK-02H 5 mg/kg)
[5] = day 14 after CFA, high dose groups (46 and JK-02A 40 mg/kg, JK-02H 20 mg/kg)
[6] = day 14 after CFA, single high dose i.v. (46 and JK-02A 40 mg/kg, JK-02H 20 mg/kg)
[7] = day 14 after CFA, single high dose i.v. (46 and JK-02A 40 mg/kg, JK-02H 20 mg/kg), 5 h post treatment
[8] = individual animal, high dose i.v. (46 and JK-02A 40 mg/kg, JK-02H 20 mg/kg), hydrochloride
[9] = individual animal, low dose i.v. (46 and JK-02A 10 mg/kg, JK-02H 5 mg/kg), hydrochloride
[10] = individual animal, high dose i.v. (46 and JK-02A 40 mg/kg, JK-02H 20 mg/kg), two repeated stimuli, hydrochloride
[11] = individual animal, low dose i.v. (46 and JK-02A 10 mg/kg, JK-02H 5 mg/kg), two repeated stimuli, hydrochloride

Compound: Cl.O=C(N[C@@H]1CNC[C@H]1NC(=O)c1ccc2cn[nH]c2c1)c1ccc(C(=O)c2c(OCCOCCO)ccc(F)c2F)cc1 [JK-02H, (3R,4R)-3-{4-[2,3-difluoro-6-(5-hydroxy-3-oxapentan-1-oxy)]benzoyl}benzamido-4-(1H-indazole-6-carboxamido)pyrrolidine hydrochloride]
- Weight Bearing Test Values (Mean ± SD), Baseline [1, 3]: 48.83 ± 9.15 g
- Weight Bearing Test Values (Mean ± SD), 15 min [1, 4]: 25.30 ± 7.97 g
- Weight Bearing Test Values (Mean ± SD), 2 h [1, 4]: 37.43 ± 9.77 g
- Weight Bearing Test Values (Mean ± SD), Baseline [1, 5]: 46.68 ± 4.82 g
- Weight Bearing Test Values (Mean ± SD), 15 min [1, 6]: 28.55 ± 10.91 g
- Weight Bearing Test Values (Mean ± SD), 2 h [1, 6]: 30.48 ± 7.88 g
- Weight Bearing Test Values (Mean ± SD), 5 h [1, 7]: 37.58 ± 6.58 g
- Weight Bearing Values of Individual Animal, Day 14, 15 min, Left [1, 8]: 59.4 g and 69.4 g and 72.7 g and 72.8 g and 23.1 g and 55.7 g and 42.0 g and 55.0 g
- Weight Bearing Values of Individual Animal, Day 14, 15 min, Right [1, 8]: 82.5 g and 90.8 g and 92.9 g and 99.1 g and 77.6 g and 82.3 g and 70.4 g and 82.9 g
- Weight Bearing Values of Individual Animal, Day 14, 15 min, Δ [1, 8]: 23.1 g and 21.4 g and 20.2 g and 26.3 g and 54.5 g and 26.6 g and 28.4 g and 27.9 g
- Weight Bearing Values of Individual Animal, Day 14, 2 h, Left [1, 8]: 75.2 g and 69.4 g and 47.2 g and 71.7 g (2×) and 76.8 g and 55.9 g and 47.9 g
- Weight Bearing Values of Individual Animal, Day 14, 2 h, Right [1, 8]: 95.7 g and 104.8 g and 90.0 g and 96.8 g and 99.9 g and 93.7 g and 80.6 g and 98.1 g
- Weight Bearing Values of Individual Animal, Day 14, 2 h, Δ [1, 8]: 20.5 g and 35.4 g and 42.8 g and 25.1 g and 23.1 g and 37.8 g and 32.7 g and 26.4 g
- Weight Bearing Values of Individual Animal, Day 14, 5 h, Left [1, 8]: 63.5 g and 62.4 g and 66.3 g and 54.9 g and 63.8 g and 57.7 g and 47.6 g and 44.0 g
- Weight Bearing Values of Individual Animal, Day 14, 5 h, Right [1, 8]: 94.2 g and 111.2 g and 105.6 g and 95.6 g and 95.1 g and 88.7 g and 83.3 g and 87.1 g
- Weight Bearing Values of Individual Animal, Day 14, 5 h, Δ [1, 8]: 30.7 g and 48.8 g and 39.3 g and 40.7 g and 31.3 g and 31.0 g and 35.7 g and 43.1 g
- Weight Bearing Values of Individual Animal, Day 7, 15 min, Left [1, 9]: 54.2 g and 73.4 g and 30.9 g and 63.3 g and 46.3 g and 67.8 g and 45.1 g and 60.6 g
- Weight Bearing Values of Individual Animal, Day 7, 15 min, Right [1, 9]: 77.2 g and 99.2 g and 71.7 g and 77.8 g and 72.4 g and 85.5 g and 75.2 g and 85.0 g
- Weight Bearing Values of Individual Animal, Day 7, 15 min, Δ [1, 9]: 23.0 g and 25.8 g and 40.8 g and 14.5 g and 26.1 g and 17.7 g and 30.1 g and 24.4 g
- Weight Bearing Values of Individual Animal, Day 7, 2 h, Left [1, 9]: 42.3 g and 29.7 g and 57.5 g and 72.9 g and 23.1 g and 37.3 g and 43.5 g and 51.9 g
- Weight Bearing Values of Individual Animal, Day 7, 2 h, Right [1, 9]: 66.8 g and 74.0 g and 106.2 g and 97.7 g and 71.6 g and 77.0 g and 81.2 g and 83.1 g
- Weight Bearing Values of Individual Animal, Day 7, 2 h, Δ [1, 9]: 24.5 g and 44.3 g and 48.7 g and 24.8 g and 48.5 g and 39.7 g and 37.7 g and 31.2 g
- First Baseline, Balance Left, individual animal ([1]; individual animal, pretreatment day 7, left (CFA-injected) hind paw, hydrochloride): 62.6 g and 45.6 g and 51.0 g and 60.6 g and 48.8 g and 56.5 g and 38.6 g and 64.0 g
- First Baseline, Balance Right, individual animal ([1]; individual animal, pretreatment day 7, right hind paw, hydrochloride): 96.2 g (2×) and 101.1 g and 115.5 g and 89.7 g and 121.0 g and 87.7 g and 110.9 g
- First Baseline, Balance Δ, individual animal ([1]; individual animal, pretreatment day 7, right minus left, hydrochloride): 33.6 g and 50.6 g and 50.1 g and 54.9 g and 40.9 g and 64.5 g and 49.1 g and 46.9 g
- Second Baseline, Balance Left, individual animal ([1]; individual animal, pretreatment day 14, left (CFA-injected) hind paw, hydrochloride): 43.2 g and 65.0 g and 68.9 g and 61.3 g and 47.2 g and 60.6 g and 50.2 g and 51.8 g
- Second Baseline, Balance Right, individual animal ([1]; individual animal, pretreatment day 14, right hind paw, hydrochloride): 86.1 g and 110.8 g and 113.2 g and 115.1 g and 93.6 g and 102.8 g and 93.7 g and 106.3 g
- Second Baseline, Balance Δ, individual animal ([1]; individual animal, pretreatment day 14, right minus left, hydrochloride): 42.9 g and 45.8 g and 44.3 g and 53.8 g and 46.4 g and 42.2 g and 43.5 g and 54.5 g
- Von Frey Filament Test Values (Mean ± SD), Baseline [2, 3]: 6.76 ± 0.73 g
- Von Frey Filament Test Values (Mean ± SD), 15 min [2, 4]: 9.85 ± 2.15 g
- Von Frey Filament Test Values (Mean ± SD), 2 h [2, 4]: 8.69 ± 1.57 g
- Von Frey Filament Test Values (Mean ± SD), Baseline [2, 5]: 6.81 ± 0.70 g
- Von Frey Filament Test Values (Mean ± SD), 15 min [2, 6]: 10.87 ± 1.00 g
- Von Frey Filament Test Values (Mean ± SD), 2 h [2, 6]: 10.57 ± 1.76 g
- Von Frey Filament Test Values (Mean ± SD), 5 h [2, 7]: 9.68 ± 1.63 g
- Von Frey Values of Individual Animal, Day 14, 15 min [2, 10]: 11.6 g and 11.4 g (2×) and 9.4 g (2×) and 10.9 g and 9.7 g and 10.3 g and 10.1 g and 11.1 g and 10.8 g and 10.4 g and 12.0 g and 13.7 g and 11.7 g and 10.0 g
- Von Frey Values of Individual Animal, Day 14, 2 h [2, 10]: 7.1 g and 8.9 g and 11.3 g and 10.8 g (2×) and 9.2 g and 7.2 g and 12.0 g and 9.8 g and 10.5 g and 10.3 g and 11.4 g and 11.0 g and 12.3 g and 13.0 g and 13.5 g
- Von Frey Values of Individual Animal, Day 14, 5 h [2, 10]: 7.3 g and 8.9 g and 8.7 g (2×) and 9.5 g and 7.1 g and 7.4 g and 8.5 g and 11.0 g and 9.8 g and 11.3 g and 9.9 g and 11.2 g and 12.6 g and 12.1 g and 10.9 g
- Von Frey Values of Individual Animal, Day 7, 15 min [2, 11]: 6.5 g and 5.5 g and 11.9 g and 13.8 g and 8.6 g and 8.5 g (2×) and 10.5 g (2×) and 11.3 g (2×) and 8.7 g and 9.3 g and 9.7 g and 11.4 g and 11.7 g
- Von Frey Values of Individual Animal, Day 7, 2 h [2, 11]: 7.0 g and 6.2 g and 11.4 g and 11.2 g and 8.7 g (2×) and 9.0 g and 7.5 g (3×) and 6.5 g and 8.5 g and 10.8 g (2×) and 8.4 g and 9.4 g
- First Baseline, Von Frey, individual animal ([2]; individual animal, pretreatment day 7, two repeated stimuli per animal, hydrochloride): 4.9 g and 5.8 g (3×) and 6.7 g and 7.7 g and 6.1 g and 7.0 g and 7.1 g and 6.4 g and 7.4 g (2×) and 7.3 g (2×) and 8.0 g and 7.5 g
- Second Baseline, Von Frey, individual animal ([2]; individual animal, pretreatment day 14 after washing-out, two repeated stimuli per animal, hydrochloride): 5.2 g and 5.4 g and 8.4 g and 6.7 g and 6.6 g (2×) and 6.4 g and 7.3 g (2×) and 7.1 g and 6.8 g and 7.6 g and 7.4 g and 6.9 g and 6.2 g and 7.0 g
